Reference: patent publication US20240000860A1, “METHODS FOR TREATING AUTISM SPECTRUM DISORDER” (priority 2020, published 2024)
Marks after values point to notes of the source that are not given here.

Key:
Format in all cases: in vivo
[1] = tested on: gene pathways in mouse brain (prefrontal cortex); assay: RNA sequencing of prefrontal cortex after supplemented metabolites: differentially expressed gene pathways; details: two weeks supplementation
Procedure: Transcriptomics data (RNA sequencing) was collected from the prefrontal cortex of 12-week old mice after consuming a low, medium, or high dosage of supplemented metabolites for two weeks. RNA sequencing used brain tissue to evaluate possible correlation between changes in relative changes in gene transcription with changes in behavior. The number of differentially expressed gene pathways at significance level of 0.05, 0.1, and 0.15 was determined (Table 1).

CNTNAP2 mice [2] = assay: Gut microbiota taxonomic composition in colons with 5D supplementation
Procedure: Genera under the family Lachnospiraceae and Ruminococcaceae were consistently seen increased in CNTNAP2 mice and decreased with 5D supplementation.
P-values were determined using permanova and beta-dispersion tests. FIGS. 29B-29N show results of differential abundance test of ASVs aggregated at the genus level. […] P-values were determined using Wilcoxon rank sum test, values were reported as fold change of median of C57BL/6 controls.

[3] = tested on: gene pathways in frontal cortex of CNTNAP2 mice; assay: RNA-sequencing and gene set enrichment analysis of frontal cortex; details: for normalized enrichment score: 5D vs normal chow
Procedure: In this example, to further investigate 5D's effect on neuronal function, RNA-sequencing was performed on the frontal cortex region of CNTNAP2 mice supplemented with 5D after 3 weeks.
Bar size depicts enrichment score normalized by gene set size, and color depicts fdr corrected p-value as determined by gene set enrichment analysis. […] (CNTNAP-NormC: n=5, CNTNAP-5D: n=9)

CNTNAP2 mice [4] = assay: Lipidomic profiles and triglyceride levels in brain, plasma, liver and stool
Excerpt: Triglycerides were identified as influential in every tissue measured. Lipids were first aggregated into categories (e.g. triglycerides, phosphocholines), then PCA ordination was applied. […] P-values determined from permanova test between treatments are shown as annotations.
Intensities were normalized using CUDA calibration and were reported as log fold change of median of C57BL/6 wild type controls. P-values were derived from Wilcox rank sum test.

mice [5] = assay: Habituation over three days (distance traveled, time in center, ambulatory time); details: for Habituation exploration / Habituation time in center: behavioral assay summary, Yes/No; for habituation: total distance traveled and exploratory activity: over three days
Procedure: (§1) Mice were fed 80% of their total food as non-supplemented food (chow) for 4 days. For the next two weeks, mice were fed 80% of their total food as non-supplemented food and the remaining 20% was supplemented with selected metabolites(s). Mice were fed on food supplemented with various metabolites including 5-dodecacenoate (5D), glycodeoxycholate (GDC), ursodeoxycholate (UDC), or a control food lacking a supplement (CTL). Mouse behavior was tested using an elevated plus maze (FIG. 13), a three-chamber sociability test, and tracking wheel usage. During testing, mice were fed 80% of their total food as non-supplemented food and the remaining 20% was supplemented with the selected metabolites(s).
Habituation over was tested with the […] (FIG. 16). […] Significance was tested with an ANOVA test.
Habituation was measured by tracking the amount of time spent in the center of the chamber (FIG. 18).
Active time was also measured as total ambulatory time and center ambulatory time.

mice [6] = assay: Mouse wheel distance traveled; details: for night-time activity: after administering metabolites
Procedure: as §1
Lastly, mice fed with food supplemented with various metabolites were given a mouse wheel and distance traveled was tracked.

mice [7] = assay: Elevated plus maze (anxiogenic behavior); details: for EPM closed arms / EPM open arms: behavioral assay summary, Yes/No; for active time in the closed arms of the maze / time spent in closed arms of elevated plus maze: vs control mice
Procedure: as §1
Anxiogenic behavior was tested by tracking time spent in closed arms of an elevated plus maze. Control mice were fed food lacking a supplement.

mice [8] = assay: Three-chamber sociability test; details: for Sociability: behavioral assay summary, Yes/No
Procedure: as §1
Additionally, the effect of supplementation with the metabolites on sociability was measured with a three-chamber sociability test (FIG. 21). This chamber tested for responses to social novelty.

[9] = significance level 0.05, 12-week old mice
[10] = significance level 0.1, 12-week old mice
[11] = significance level 0.15, 12-week old mice
[12] = frontal cortex of CNTNAP2 mice after 3 weeks
[13] = treatment average vs Control Average
[14] = treatment average vs 5D Average

CCCCCCC=CCCCC(=O)O [5D, 5-dodecenoate]
Differentially Expressed Gene Pathways in Mouse Brain [1, 9]: 0
Differentially Expressed Gene Pathways in Mouse Brain [1, 10]: 216
Differentially Expressed Gene Pathways in Mouse Brain [1, 11]: 235
Romboutsia ilealis levels (CNTNAP2 mice [2]; CNTNAP2 mice): found at very high levels in some CNTNAP2 mice
ten genera of bacteria increased in CNTNAP2 mice compared to C57BL/6 (CNTNAP2 mice [2]; Wilcoxon rank sum test): significantly decreased
taxonomic composition of gut microbiota (CNTNAP2 mice [2]; oral supplementation, CNTNAP2 mice vs C57BL/6 wild types): shifts the taxonomic composition of CNTNAP2 mice
normalized enrichment score ([3]; R-MMU-112314 Neurotransmitter receptors and postsynaptic signal transmission): −2.033
normalized enrichment score ([3]; R-MMU-112315 Transmission across Chemical Synapses): −1.846
normalized enrichment score ([3]; R-MMU-112316 Neuronal System): −2.025
normalized enrichment score ([3]; R-MMU-114604 GPVI-mediated activation cascade): 1.832
normalized enrichment score ([3]; R-MMU-181431 Acetylcholine binding and downstream events): −2.154
normalized enrichment score ([3]; R-MMU-195721 Signaling by WNT): −1.416
normalized enrichment score ([3]; R-MMU-198933 Immunoregulatory interactions between a Lymphoid and a non-Lymphoid cell): 1.706
normalized enrichment score ([3]; R-MMU-202733 Cell surface interactions at the vascular wall): 1.736
normalized enrichment score ([3]; R-MMU-216083 Integrin cell surface interactions): 1.99
normalized enrichment score ([3]; R-MMU-397014 Muscle contraction): −1.646
normalized enrichment score ([3]; R-MMU-418360 Platelet calcium homeostasis): −2.258
normalized enrichment score ([3]; R-MMU-419037 NCAM1 interactions): 1.823
normalized enrichment score ([3]; R-MMU-622323 Presynaptic nicotinic acetylcholine receptors): −2.107
normalized enrichment score ([3]; R-MMU-622327 Postsynaptic nicotinic acetylcholine receptors): −2.154
normalized enrichment score ([3]; R-MMU-629594 Highly calcium permeable postsynaptic nicotinic acetylcholine receptors): −2.095
normalized enrichment score ([3]; R-MMU-983168 Antigen processing: Ubiquitination and Proteasome degradation): −1.55
normalized enrichment score ([3]; R-MMU-1296071 Potassium Channels): −1.854
normalized enrichment score ([3]; R-MMU-1296072 Voltage gated Potassium channels): −1.912
normalized enrichment score ([3]; R-MMU-1442490 Collagen degradation): 2.005
normalized enrichment score ([3]; R-MMU-1474228 Degradation of the extracellular matrix): 1.968
normalized enrichment score ([3]; R-MMU-1474244 Extracellular matrix organization): 1.79
normalized enrichment score ([3]; R-MMU-1474290 Collagen formation): 2.185
normalized enrichment score ([3]; R-MMU-1650814 Collagen biosynthesis and modifying enzymes): 2.145
normalized enrichment score ([3]; R-MMU-2022090 Assembly of collagen fibrils and other multimeric structures): 2.261
normalized enrichment score ([3]; R-MMU-2022857 Keratan sulfate degradation): 1.893
normalized enrichment score ([3]; R-MMU-3928664 Ephrin signaling): −2.03
normalized enrichment score ([3]; R-MMU-5576891 Cardiac conduction): −1.669
normalized enrichment score ([3]; R-MMU-5668599 RHO GTPases Activate NADPH Oxidases): 1.842
normalized enrichment score ([3]; R-MMU-5686938 Regulation of TLR by endogenous ligand): 1.963
normalized enrichment score ([3]; R-MMU-6794361 Neurexins and neuroligins): −1.973
normalized enrichment score ([3]; R-MMU-6794362 Protein-protein interactions at synapses): −2.181
normalized enrichment score ([3]; R-MMU-6798695 Neutrophil degranulation): 1.588
normalized enrichment score ([3]; R-MMU-6803157 Antimicrobial peptides): 1.959
normalized enrichment score ([3]; R-MMU-6811436 COPI-independent Golgi-to-ER retrograde traffic): −1.957
normalized enrichment score ([3]; R-MMU-8878159 Transcriptional regulation by RUNX3): −1.748
normalized enrichment score ([3]; R-MMU-8948216 Collagen chain trimerization): 2.098
normalized enrichment score ([3]; R-MMU-8951664 Neddylation): −1.571
expression of collagen, extracellular matrix, cell structure and interaction pathways [3, 12]: increased the expression of pathways such as collagen formation
expression of innate immunity pathways [3, 12]: increased expression of pathways that relate to innate immunity
expression of synapse-dependent pathways [3, 12]: decreased expression of synapse-dependent pathways
genes significantly modulated (p<0.05) [3, 12]: 1438
lipid profiles in brain and stool (CNTNAP2 mice [4]): tended to shift brain and stool profiles, though this shift was not statistically significant
lipid profiles in plasma and liver (CNTNAP2 mice [4]): significantly shift CNTNAP2 mouse lipid profiles in plasma and liver
triglyceride levels in brain, liver, plasma and stool (CNTNAP2 mice [4]; dietary supplementation): decreased the levels significantly in each of the tissues
Habituation exploration (mice [5]): Yes
Habituation time in center (mice [5]): Yes
habituation: total distance traveled and exploratory activity (mice [5]): lower total distance traveled and exploratory activity over three days
center ambulatory time (mice [5]; over time): increase in center ambulatory time over time
time spent in the center of the chamber (mice [5]; over time): increase in time spent in the center of the chamber over time
night-time activity (mice [6]): night-time activity increased
Adjusted p value, comparison of average distance traveled (mice [6]; [13]): 0.01466*
EPM closed arms (mice [7]): Yes
EPM open arms (mice [7]): No
active time in the closed arms of the maze (mice [7]): lower active time in the closed arms of the maze than control mice
time spent in closed arms of elevated plus maze (mice [7]): spent less time in the closed arms of the maze
Sociability (mice [8]): Yes
time spent with a new mouse, compared among treatments (mice [8]; mouse, in vivo): spent the most time with a new mouse
time spent with novel mouse ('new') vs known mouse ('old') (mice [8]; response to social novelty): spent more time with a novel mouse

C[C@H](CCC(=O)NCC(=O)O)[C@H]1CC[C@H]2[C@@H]3CC[C@@H]4C[C@H](O)CC[C@]4(C)[C@H]3C[C@H](O)[C@]12C [GDC, glycodeoxycholate]
Differentially Expressed Gene Pathways in Mouse Brain [1, 9]: 153
Differentially Expressed Gene Pathways in Mouse Brain [1, 10]: 277
Differentially Expressed Gene Pathways in Mouse Brain [1, 11]: 291
Habituation exploration (mice [5]): Yes
Habituation time in center (mice [5]): No
habituation: total distance traveled and exploratory activity (mice [5]): lower total distance traveled and exploratory activity over three days
night-time activity (mice [6]): night-time activity increased
Adjusted p value, comparison of average distance traveled (mice [6]; [14]): 0.2762
Adjusted p value, comparison of average distance traveled (mice [6]; [13]): 0.0000114*
EPM closed arms (mice [7]): No
EPM open arms (mice [7]): No
time spent in closed arms of elevated plus maze (mice [7]): did not spend significantly more time in closed arms than control mice
Sociability (mice [8]): No

N[C@@H](CCC(=O)O)C(=O)O [Glutamate, glutamate]
Differentially Expressed Gene Pathways in Mouse Brain [1, 9]: 0
Differentially Expressed Gene Pathways in Mouse Brain [1, 10]: 0
Differentially Expressed Gene Pathways in Mouse Brain [1, 11]: 107

CC(=O)N[C@@H](CCC(=O)O)C(=O)O [N-acetyl-L-glutamate]
Differentially Expressed Gene Pathways in Mouse Brain [1, 9]: 82
Differentially Expressed Gene Pathways in Mouse Brain [1, 10]: 145
Differentially Expressed Gene Pathways in Mouse Brain [1, 11]: 177

C[C@H](CCC(=O)O)[C@H]1CC[C@H]2[C@@H]3[C@@H](O)C[C@@H]4C[C@H](O)CC[C@]4(C)[C@H]3CC[C@]12C [UDC, ursodeoxycholate]
Differentially Expressed Gene Pathways in Mouse Brain [1, 9]: 0
Differentially Expressed Gene Pathways in Mouse Brain [1, 10]: 0
Differentially Expressed Gene Pathways in Mouse Brain [1, 11]: 104
Habituation exploration (mice [5]): No
Habituation time in center (mice [5]): No
habituation: total distance traveled and exploratory activity (mice [5]): did not decrease the total distance traveled on day three compared to day two
night-time activity (mice [6]): night-time activity increased
Adjusted p value, comparison of average distance traveled (mice [6]; [14]): 0.00000000
Adjusted p value, comparison of average distance traveled (mice [6]; [13]): 0.00000000*
Adjusted p value, comparison of average distance traveled (mice [6]; treatment average vs GDC Average): 0.0000141
EPM closed arms (mice [7]): Yes
EPM open arms (mice [7]): No
active time in the closed arms of the maze (mice [7]): lower active time in the closed arms of the maze than control mice
time spent in closed arms of elevated plus maze (mice [7]): spent less time in the closed arms of the maze
Sociability (mice [8]): No
